Results as given in patent publication US7244557B2, “Method of screening modulators of Nod1 signaling” (Regents of the University of Michigan, priority 2003, dated 2007).

Molecular target: T1, NOD1 (Homo sapiens, UniProt Q9Y239)
T1 construct: expressed in transfected cells; host or cells: HEK293T
T1 sequence (Q9Y239 1-953): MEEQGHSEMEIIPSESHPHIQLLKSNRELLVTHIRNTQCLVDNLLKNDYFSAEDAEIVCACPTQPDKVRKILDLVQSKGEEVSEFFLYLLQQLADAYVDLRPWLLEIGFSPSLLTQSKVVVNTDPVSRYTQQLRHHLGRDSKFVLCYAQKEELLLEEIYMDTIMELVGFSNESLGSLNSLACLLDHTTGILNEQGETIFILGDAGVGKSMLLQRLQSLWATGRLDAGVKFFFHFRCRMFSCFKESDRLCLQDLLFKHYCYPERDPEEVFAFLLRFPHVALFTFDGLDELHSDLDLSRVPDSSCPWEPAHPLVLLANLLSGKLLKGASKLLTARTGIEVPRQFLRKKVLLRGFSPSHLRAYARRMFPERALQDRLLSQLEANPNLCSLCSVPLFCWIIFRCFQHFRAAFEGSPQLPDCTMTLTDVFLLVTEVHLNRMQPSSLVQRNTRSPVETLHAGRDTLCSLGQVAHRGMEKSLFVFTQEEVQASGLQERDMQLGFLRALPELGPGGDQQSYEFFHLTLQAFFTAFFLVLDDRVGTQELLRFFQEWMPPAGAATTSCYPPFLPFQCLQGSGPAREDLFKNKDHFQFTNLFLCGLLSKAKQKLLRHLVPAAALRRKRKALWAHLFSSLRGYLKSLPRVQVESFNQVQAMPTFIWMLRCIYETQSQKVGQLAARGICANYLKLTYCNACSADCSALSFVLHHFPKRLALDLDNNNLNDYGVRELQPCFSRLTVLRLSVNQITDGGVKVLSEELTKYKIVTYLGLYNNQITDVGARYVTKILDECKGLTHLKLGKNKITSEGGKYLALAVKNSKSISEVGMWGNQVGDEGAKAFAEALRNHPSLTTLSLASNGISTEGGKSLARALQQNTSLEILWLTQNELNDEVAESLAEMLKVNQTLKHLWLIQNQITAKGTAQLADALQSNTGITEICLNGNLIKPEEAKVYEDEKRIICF
Assay: NF-κB-dependent luciferase reporter assay, HEK293T cells expressing NOD1
Assay type: cell-based
Source text: Reagents. LPS from S. typhimurium, intact and alkaline-detoxified LPS from E. coli O55:B5 as well as purified lipid A preparations of E. coli F583, MDP, DAP and dsRNA were obtained from Sigma-Aldrich (St. Louis, Mo.). PGN from S. aureus was from Fluka-Chemie (Buchs, Germany). Palmitoyl-Cys ((RS)-2,3-di(palmitoyloxy)-propyl)-Ala-Gly) (sBLP), was obtained from Bachem (Torrance, Calif.). The tetrameric form of the disaccharide dipeptide was described previously (Inohara et al., J. Biol. Chem. 278:5509 [2003]). iE-DAP and iQ-DAP, M3P and M4P were synthesized as described (Kitaura et al., J. Med. Chem. 25:335 [1982]) with small modification. Purification of PGN from B. subtilis 168 and C. flaccumfaciens with hydrolases, Cellosyl or recombinant AtlE (amidase domain) and the fractionation and purification of reduced B. subtilis PGN digested with Cellosyl were performed as previously described (Heilman et al., Mol. Microbiol. 24:1013 [1997]; Atrih et al., J. Bact. 181:3956 [1999]). Removal of proteins and reduction of LPS fraction. E. coli O55:B5 LPS (Sigma) was treated with proteinase K at 37° C. for 12 hr to digest contaminating proteins. To eliminate lipoproteins, LPS was subjected to modified phenol extraction with deoxycholate-containing phenol as described (Hirschfeld et al., J. Immunol. 165:618 [2000]). For reduction of carboxyl group in the LPS, the LPS was treated with 1-ethyl-3-(3-dimethylaminopropyl) carbodiimide and then reduced with NaBH4 as described (Taylor et al., Biochemistry 11:1383 [1972]). Preparation of E. coli extract. E. coli K-12 mutants were all based on the SØ864 genetic background (lacZ trp upp relA rpsL) (Neuhard and Thomassen, J. Bacteriol. 126:999). SØ874 carries a large chromosomal deletion removing the gene clusters for the biosynthesis of CA capsule and O-antigen. CLM5 is a derivative of SØ874 with a transposon insertion in the wecC gene that blocks the synthesis of ECA (Marolda et al., J. Bacteriol. 177:5539[1995]). FAM5 is a derivative of SØ874 carrying a deletion that eliminates the incorporation of heptose in the LPS core. Extracts were prepared from all of these E. coli K-12 strains and also from another E. coli K-12 strain, LCD27 YA21-6 (Obtained from Dr. Arisaka, Tokyo Institute of Technology). Bacteria were cultured overnight at 37° C. in Luria broth, killed by treatment with acetone followed by vacuum drying and finally resuspended in 10 mM HEPES. The extract was treated with 1M NaOH at 55° C. for 12 hr and neutralized with 1M HEPES (pH 7.4). The soluble fraction after centrifugation and filtration with 0.22 μm filter was applied to SUPEROSE 12 gel filtration column chromatography. Partial purification of NOD1-stimulatory molecules from E. coli and composition analyses. The amino acid composition of E. coli O55:B5 LPS was determined using AccQ·Tag amino acid analysis system (Waters, Milford, Mass.) after hydrolysis at 110° C. for 24 hr. For carbohydrate analysis, E coli K-12 YA21-6 (Ref 26) cultured overnight at 37° C. in L-broth were washed with TBS twice and incubated with TBS containing 1 mglml DNase I, RNase I and lysozyme for 37° C. for 2 hr. Acetone was added to the extracts at 50% final concentration and the insoluble fractions were washed with an excess of 75% and 100% acetone. After vacuum drying, the acetone extract was solublized with 1 M NaOH and incubated at 60° C. for 24 hr. The pH was adjusted to pH 5.0 with acetic acid and the soluble fraction was passed through SUPEROSE gel filtration column. SUPEROSE fractions with NOD1-stimulatory activity were diluted with 10 mM Tris-HCl (pH 8.8) and subjected to UnoQ column chromatography. The fractions were eluted with a linear gradient of 0–300 mM NaCl. The positive fractions were dialyzed against water and dried under vacuum. The monosaccharide composition of the fractions after TFA/methanol degradation was determined as previously described (Forsberg et al., J. Biol. Chem. 273:2747[1998]). Transfection and NF-κB Activation Assay. […]

Substance	NOD1-dependent NF-κB activation (NOD1 stimulation)
γ-D-Gln-DAP [iQ-DAP]	stimulated NOD1
γ-D-glutamy-meso-diaminopimelic acid [iE-DAP]	stimulated NOD1
MurNAc-L-Ala-γ-D-Gln [MDP]	Neither MDP nor tetrameric forms of disaccharide dipeptide (4 mer) stimulated NOD1
Palmitoyl-Cys ((RS)-2,3-di(palmitoyloxy)-propyl)-Ala-Gly) [synthetic lipoprotein]	not NOD1
